Data on one compound can be found in paper PMC11546340 (BMC Chemistry, 2024).

Molecules are shown by their SMILES. Where “and” joins values, the source holds several entries; their conditions need not be identical. Identical values can stand only once.

For one data set, the system named is human plasma. As to the kind of experiment: Plasma protein binding, HT Dialysis 96-well apparatus, LC-MS/MS. Type of data set: in vitro ADME. Conditions: 3 µM.
Assay in data set [1]: as above
Type of data set: in vitro ADME. Conditions: male, human, plasma, pH 7.4, Recovery (%), mean, n = 4.

For `O=C(O)Cc1ccccc1Nc1c(Cl)cccc1Cl` [Diclofenac], in the data set with human plasma (individual replicates 1-4), the “Bound (%)” value was 99.01% and 99.07% and 98.91% and 98.99%; the “Recovery (%)” value is 80.60% and 94.07% and 119.11% and 83.10%; the “Unbound (%)” value was 0.99% and 0.93% and 1.09% and 1.01%. Besides, the “Unbound (%)” value in the data set on human plasma (mean, n = 4) was 1.01%. Moreover, the recovery at 5 h, 3 µM in data set [1] was 94.2%.
